Test results taken from PubChem BioAssay (NCI).
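Here, GI50 denotes the concentration required for 50% inhibition of growth. TGI: concentration producing complete growth inhibition.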

Experiments:
Assay in all cases: NCI-60 cell line screen, 384-well format
BT-549 breast = system: BT-549 breast
TK-10 renal = system: TK-10 renal
SF-268 CNS = system: SF-268 CNS
RXF 393 renal = system: RXF 393 renal
SF-295 CNS = system: SF-295 CNS
NCI-H522 lung = system: NCI-H522 lung
SK-OV-3 ovarian = system: SK-OV-3 ovarian
SK-MEL-5 melanoma = system: SK-MEL-5 melanoma
IGROV1 ovarian = system: IGROV1 ovarian
MCF7 breast = system: MCF7 breast
HOP-92 NSCLC = system: HOP-92 NSCLC
MALME-3M melanoma = system: MALME-3M melanoma
HCT-15 colon = system: HCT-15 colon
MDA-MB-435 melanoma = system: MDA-MB-435 melanoma
UACC-62 melanoma = system: UACC-62 melanoma
UACC-257 melanoma = system: UACC-257 melanoma
ACHN renal = system: ACHN renal
NCI-H226 lung = system: NCI-H226 lung
SW-620 colon = system: SW-620 colon
SK-MEL-28 melanoma = system: SK-MEL-28 melanoma
NCI-H23 lung = system: NCI-H23 lung
OVCAR-8 ovarian = system: OVCAR-8 ovarian
SNB-19 CNS = system: SNB-19 CNS
A498 renal = system: A498 renal
M14 melanoma = system: M14 melanoma
EKVX NSCLC = system: EKVX NSCLC
SK-MEL-2 melanoma = system: SK-MEL-2 melanoma
HOP-62 NSCLC = system: HOP-62 NSCLC

CN[C@@H](C)C(=O)N[C@H](C(=O)N1CCC[C@H]1C(=O)Nc1sc(-c2ncco2)nc1-c1ccccc1)C1CCCCC1
TGI (BT-549 breast): 2.32 µM
GI50 (TK-10 renal): 11.3 µM
TGI (TK-10 renal): 24.4 µM
GI50 (SF-268 CNS): 10.4 µM
TGI (SF-268 CNS): 22.3 µM
GI50 (RXF 393 renal): < 0.01 µM
TGI (RXF 393 renal): 0.0402 µM
GI50 (SF-295 CNS): 3.72 µM
TGI (SF-295 CNS): 14.7 µM
GI50 (NCI-H522 lung): 0.0966 µM
TGI (NCI-H522 lung): 1.08 µM
GI50 (SK-OV-3 ovarian): < 0.01 µM
TGI (SK-OV-3 ovarian): 0.064 µM
GI50 (SK-MEL-5 melanoma): 0.114 µM
TGI (SK-MEL-5 melanoma): 1.38 µM
GI50 (IGROV1 ovarian): 10.5 µM
TGI (IGROV1 ovarian): 24.5 µM
GI50 (MCF7 breast): 0.16 µM
TGI (MCF7 breast): 1.18 µM
GI50 (HOP-92 NSCLC): 9.99 µM
TGI (HOP-92 NSCLC): 21.8 µM
GI50 (MALME-3M melanoma): 0.0256 µM
TGI (MALME-3M melanoma): 0.74 µM
GI50 (HCT-15 colon): 8.22 µM
TGI (HCT-15 colon): 21.4 µM
GI50 (MDA-MB-435 melanoma): 1.6 µM
TGI (MDA-MB-435 melanoma): 13.5 µM
GI50 (UACC-62 melanoma): 0.781 µM
TGI (UACC-62 melanoma): 10.9 µM
GI50 (UACC-257 melanoma): 2.27 µM
TGI (UACC-257 melanoma): 13.3 µM
GI50 (ACHN renal): 4.35 µM
TGI (ACHN renal): 17.2 µM
GI50 (NCI-H226 lung): 5.52 µM
TGI (NCI-H226 lung): 27.5 µM
GI50 (SW-620 colon): 3.66 µM
TGI (SW-620 colon): 17.9 µM
GI50 (SK-MEL-28 melanoma): 2.64 µM
TGI (SK-MEL-28 melanoma): 16.7 µM
GI50 (NCI-H23 lung): 0.159 µM
TGI (NCI-H23 lung): 1.28 µM
GI50 (OVCAR-8 ovarian): 1.02 µM
TGI (OVCAR-8 ovarian): 2.87 µM
GI50 (SNB-19 CNS): 18.6 µM
TGI (SNB-19 CNS): 61.4 µM
GI50 (A498 renal): 5.13 µM
TGI (A498 renal): 17.9 µM
GI50 (M14 melanoma): 8.12 µM
TGI (M14 melanoma): 20.8 µM
GI50 (EKVX NSCLC): 10.7 µM
TGI (EKVX NSCLC): 32.2 µM
GI50 (SK-MEL-2 melanoma): < 0.01 µM
TGI (SK-MEL-2 melanoma): 1.04 µM
GI50 (HOP-62 NSCLC): 1.08 µM
TGI (HOP-62 NSCLC): 2.68 µM
